Active and inactive are the calls of the source.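 The calls were made as follows: active = any compound with an IC50 of 100 nM or lower; inactive = the rest.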
Target: Insulin-degrading enzyme (Homo sapiens) (UniProt P14735)
Test: inhibitors of IDE decapeptide proteolysis, dose response, counter-screen for IDE exo-site inhibitor project, biochemical, kinetic mode (AID 1259348);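 as to z-score: purified IDE bound to fluorescein-labelled 6b probe FL-6b at the exo-site; probe displacement lowers polarization so hits show a drop in FP signal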
Conditions: purified human IDE, fluorogenic decapeptide proteolysis; for z-score: measured here: primary FP probe displacement screen, stronger effect = lower value

Insulin-degrading enzyme (Homo sapiens), sequence (P14735 42-1019 limits assumed): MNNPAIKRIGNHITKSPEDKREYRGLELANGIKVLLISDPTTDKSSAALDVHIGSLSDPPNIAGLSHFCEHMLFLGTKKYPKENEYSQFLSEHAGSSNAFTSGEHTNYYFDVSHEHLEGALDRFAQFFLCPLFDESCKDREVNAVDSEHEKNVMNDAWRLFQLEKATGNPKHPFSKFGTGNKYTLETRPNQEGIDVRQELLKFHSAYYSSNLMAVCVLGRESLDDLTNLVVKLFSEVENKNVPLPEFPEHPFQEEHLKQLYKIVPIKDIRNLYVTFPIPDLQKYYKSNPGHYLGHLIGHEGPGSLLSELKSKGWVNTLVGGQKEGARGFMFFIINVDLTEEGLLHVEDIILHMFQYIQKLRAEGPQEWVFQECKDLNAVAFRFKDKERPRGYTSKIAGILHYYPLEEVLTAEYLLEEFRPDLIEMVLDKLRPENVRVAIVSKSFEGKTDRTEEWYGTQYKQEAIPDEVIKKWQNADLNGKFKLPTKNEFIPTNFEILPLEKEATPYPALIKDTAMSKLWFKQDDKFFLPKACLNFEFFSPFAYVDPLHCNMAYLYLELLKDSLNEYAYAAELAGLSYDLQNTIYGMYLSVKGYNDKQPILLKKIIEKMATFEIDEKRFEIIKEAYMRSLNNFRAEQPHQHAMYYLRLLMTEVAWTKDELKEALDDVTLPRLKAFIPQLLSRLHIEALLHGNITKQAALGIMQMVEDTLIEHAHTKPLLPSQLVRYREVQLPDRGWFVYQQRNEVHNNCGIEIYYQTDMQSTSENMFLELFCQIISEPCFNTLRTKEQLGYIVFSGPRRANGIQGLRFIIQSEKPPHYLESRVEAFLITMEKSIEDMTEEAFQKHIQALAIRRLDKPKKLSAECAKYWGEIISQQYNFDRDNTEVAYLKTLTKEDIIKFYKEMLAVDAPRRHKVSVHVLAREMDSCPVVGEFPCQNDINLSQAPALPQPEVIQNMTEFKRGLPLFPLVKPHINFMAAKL

For `Cc1ccccc1-c1ccc([C@@H]2[C@H]3CN(C(=O)c4ccncc4)CC(=O)N3[C@H]2CO)cc1`, the IC50 was 4.2 µM and the z-score was -13.6.
For `Cc1cccc(-c2ccc([C@@H]3[C@H]4CN(C(=O)c5cccnc5)CCCCN4[C@H]3CO)cc2)c1`, the IC50 was 6.6 µM and the z-score was -15.2.
`Cc1ccccc1-c1ccc([C@H]2[C@H](CO)N3C(=O)CN(C(=O)c4ccc(F)cc4)C[C@@H]23)cc1` was tested, and the IC50 was 3 µM and the z-score was -16.5.
Molecule `COc1ccccc1C#Cc1ccc([C@H]2[C@H](CO)N3CCCCN(C(=O)C4CCC4)C[C@@H]23)cc1` has an IC50 of 2.7 µM and a z-score of -12.3.
`Cc1cccc(-c2ccc([C@@H]3[C@H]4CN(C(=O)c5cccnc5)CC(=O)N4[C@H]3CO)cc2)c1` was tested, and the IC50 was 4.2 µM and the z-score was -17.7.
`O=C(NC1CCCC1)N1CC(=O)N2[C@H](CO)[C@@H](c3ccc(-c4cccnc4)cc3)[C@@H]2C1` showed an IC50 of 14 µM and a z-score of -12.2.
`Cc1ccccc1-c1ccc([C@@H]2[C@@H](CO)N3CCCCN(C(=O)CN4CCOCC4)C[C@@H]23)cc1` was tested, and the IC50 was 6.4 µM and the z-score was -8.
In the case of `Cc1ccccc1-c1ccc(C2[C@@H]3CN(Cc4cocn4)C[C@H]2N3)cc1` (some centres undefined), the IC50 is reported as 6.7 µM and the z-score is reported as -3.01.
Molecule `Cc1ccccc1-c1ccc([C@H]2[C@H](CO)N3C(=O)CN(C(=O)NC4CCCC4)C[C@@H]23)cc1` has an IC50 of 0.37 µM and a z-score of -20.8.
For `O=C(c1ccncc1)N1C[C@@H]2N[C@H](C1)C2c1ccc(/C=C/c2ccccc2)cc1` (some centres undefined), the IC50 was 8.8 µM and the z-score was -13.8.
In the case of `CN1C(=O)c2cc(NC(=O)Nc3ccccc3Cl)ccc2OC[C@H]2O[C@H](CC(=O)NCCCN3CCOCC3)CC[C@@H]21`, the IC50 is reported as 1.7 µM and the z-score is reported as -14.2.
`Cc1ccccc1-c1ccc(C2[C@@H]3CN(Cc4cncnc4)C[C@H]2N3)cc1` (some centres undefined) gave an IC50 of 6.7 µM and a z-score of -2.59.
In the case of `Cc1ccccc1-c1ccc([C@@H]2[C@@H](CO)N3CCCCN(S(C)(=O)=O)C[C@@H]23)cc1`, the IC50 is reported as 1.3 µM and the z-score is reported as -17.9.
Molecule `CO[C@@H]1CN(C)C(=O)c2cc(NC(=O)c3ccc(Oc4ccccc4)cc3)ccc2OC[C@@H](C)NC[C@H]1C` has an IC50 of 2.5 µM and a z-score of -13.5.
Molecule `Cc1ccccc1-c1ccc([C@H]2[C@@H](CO)N3CCCCN(C(=O)Cc4ccccn4)C[C@@H]23)cc1` has an IC50 of 50 µM and a z-score of -5.7.
In the case of `Cc1ccccc1-c1ccc([C@@H]2[C@H]3CN(C(=O)c4cccnc4)CC(=O)N3[C@H]2CO)cc1`, the IC50 is reported as 2.6 µM and the z-score is reported as -19.7.
`Cc1ccccc1-c1ccc([C@H]2[C@H](CO)N3C(=O)CN(C(=O)Nc4cccc(F)c4)C[C@@H]23)cc1` was tested, and the IC50 was 4 µM and the z-score was -3.03.
`Cc1ccccc1-c1ccc([C@H]2[C@@H](CO)N3C(=O)CN(C(=O)Cc4ccccn4)C[C@@H]23)cc1` showed an IC50 of 3.2 µM and a z-score of -17.3.
`Cc1ccccc1-c1ccc([C@@H]2[C@@H](CO)N3C(=O)CN(S(C)(=O)=O)C[C@@H]23)cc1` gave an IC50 of 1.8 µM and a z-score of -12.7.
In the case of `Cc1cccc(-c2ccc([C@@H]3[C@@H](CO)N4CCCCN(C(=O)c5ccc6c(c5)OCO6)C[C@@H]34)cc2)c1`, the IC50 is reported as > 100 µM (inactive).
`Cc1ccccc1-c1ccc([C@H]2[C@H](CO)N3C(=O)CN(C(=O)c4ccncc4)C[C@@H]23)cc1` was tested, and the IC50 was 4.5 µM and the z-score was -7.39.
Molecule `Cc1ccccc1-c1ccc(C2[C@@H]3CN(S(=O)(=O)c4cn(C)cn4)C[C@H]2N3)cc1` (some centres undefined) has an IC50 of 3.9 µM and a z-score of -16.6.
Work on `COc1ccc(NC(=O)N2CCCCN3[C@H](CO)[C@H](c4ccc(-c5ccccc5C)cc4)[C@@H]3C2)cc1` yielded an IC50 of 3.4 µM and a z-score of -0.82.
In the case of `Cc1cccc(-c2ccc([C@@H]3[C@@H](CO)N4CCCCN(S(=O)(=O)c5ccccc5C)C[C@@H]34)cc2)c1`, the IC50 is reported as 0.1 µM and the z-score is reported as -20.3.
`Cc1ccccc1-c1ccc(C2[C@@H]3CN(C(=O)C4CCOCC4)C[C@H]2N3)cc1` (some centres undefined) was tested, and the IC50 was 2.2 µM and the z-score was -7.71.
For `CC(=O)N1CCCCN2[C@H](CO)[C@@H](c3ccc(-c4cccc(C)c4)cc3)[C@@H]2C1`, the IC50 was 16.5 µM and the z-score was -3.48.
`COc1ccccc1-c1ccc([C@H]2[C@@H](CO)N3CCCCN(C(=O)c4ccncc4)C[C@H]23)cc1` was tested, and the IC50 was 4.9 µM and the z-score was -17.2.
In the case of `O=C(NC1CCCC1)N1CCCCN2[C@@H](CO)[C@H](c3ccc(/C=C/c4ccccc4)cc3)[C@@H]2C1`, the IC50 is reported as 0.88 µM and the z-score is reported as -14.8.
Molecule `Cc1cccc(-c2ccc([C@@H]3[C@@H](CO)N4CCCCN(S(=O)(=O)c5cccs5)C[C@@H]34)cc2)c1` has an IC50 of 0.8 µM and a z-score of -3.77.
For `COc1ccccc1-c1ccc([C@H]2[C@@H](CO)N[C@@H]2CNC(=O)C2CCCC2)cc1`, the IC50 was 5.1 µM and the z-score was -10.9.
Work on `Cc1ccccc1-c1ccc([C@H]2[C@@H](CO)N3C(=O)CN(C(=O)Nc4ccc(F)cc4)C[C@H]23)cc1` yielded an IC50 of 0.47 µM and a z-score of -21.3.
For `Cc1ccccc1-c1ccc([C@H]2[C@@H](CO)N3C(=O)CN(C(=O)c4cccnc4)C[C@H]23)cc1`, the IC50 was 2 µM and the z-score was -17.2.
With `Cc1cccc(-c2ccc([C@@H]3[C@@H](CO)N4CCCCN(CCC(F)(F)F)C[C@@H]34)cc2)c1` the IC50 was 71.5 µM and the z-score was -0.68.
Molecule `COc1ccccc1-c1ccc(C2[C@@H]3CN(C(=O)c4cccnc4)C[C@H]2N3)cc1` (some centres undefined) has an IC50 of 7.1 µM and a z-score of -13.8.
For `O=C(C1CCOCC1)N1CC(=O)N2[C@H](CO)[C@H](c3ccc(C#Cc4cccc(F)c4)cc3)[C@H]2C1`, the IC50 was 5.3 µM and the z-score was -19.3.
For `COc1ccccc1NC(=O)N1CCCCN2[C@H](CO)[C@@H](c3ccc(-c4cccc(C)c4)cc3)[C@@H]2C1`, the IC50 was 7.6 µM and the z-score was -2.84.
`Cc1cccc(-c2ccc([C@@H]3[C@@H](CO)N4CCCCN(C(=O)NC(C)C)C[C@@H]34)cc2)c1` gave an IC50 of 6.2 µM and a z-score of -5.51.
`COc1cccc(-c2ccc([C@@H]3[C@@H](CO)N4CCCCN(CC5CCOCC5)C[C@@H]34)cc2)c1` showed an IC50 of 30 µM.
`Cc1ccccc1-c1ccc([C@H]2[C@@H](CO)N3CCCCN(S(=O)(=O)c4cn(C)cn4)C[C@@H]23)cc1` was tested, and the IC50 was > 100 µM (inactive) and the z-score was -3.44.
Work on `CCS(=O)(=O)N1CCCCN2[C@H](CO)[C@@H](c3ccc(-c4ccccc4C)cc3)[C@@H]2C1` yielded an IC50 of 0.41 µM and a z-score of -18.3.
`Cc1ccccc1-c1ccc(C2[C@@H]3CN(C(=O)C4CCCCC4)C[C@H]2N3)cc1` (some centres undefined) was tested, and the IC50 was 1.5 µM and the z-score was -13.9.
For `Cc1cccc(-c2ccc([C@H]3[C@@H](CO)N4CCCCN(C(=O)c5cccnc5)C[C@H]34)cc2)c1`, the IC50 was 3.4 µM and the z-score was -17.
In the case of `COc1ccccc1C#Cc1ccc([C@H]2[C@H]3CN(C(=O)C4CCC4)CCCCN3[C@H]2CO)cc1`, the IC50 is reported as > 100 µM (inactive) and the z-score is reported as -17.5.
For `Cc1ccccc1-c1ccc([C@H]2[C@@H](CO)N3CCCCN(C(=O)c4cccnc4)C[C@H]23)cc1`, the IC50 was 3.1 µM and the z-score was -16.5.
Work on `Cc1ccccc1-c1ccc([C@H]2[C@@H](CO)N3CCCCN(C(=O)NC4CCCC4)C[C@@H]23)cc1` yielded an IC50 of 0.4 µM and a z-score of -19.3.
Work on `Cc1ccccc1-c1ccc([C@@H]2[C@H](CO)N3C(=O)CN(C(=O)NC4CCCC4)C[C@@H]23)cc1` yielded an IC50 of 3.6 µM and a z-score of -8.13.
In the case of `Cc1ccccc1-c1ccc([C@H]2[C@H]3CN(C(=O)NC4CCCC4)CCCCN3[C@H]2CO)cc1`, the IC50 is reported as 5.6 µM and the z-score is reported as -5.69.
With `CCC(=O)N1[C@H](CO)[C@H](c2ccc(-c3ccccc3OC)cc2)[C@@H]1CNC(C)=O` the IC50 was 5.8 µM and the z-score was -15.

From PubChem BioAssay AID1259348 (Broad Institute, 2017)
